# Data reported in PMC3593252 (ACS medicinal chemistry letters, 2013).
# Key:
# [1] = test system: acetylated tubulin, acetylated histone H3, acetylated histone H4 and p21 in MDA-MB-231 cell lines; experiment: Western blot analysis in MDA-MB-231 cell line; assay type: cell-based
# U937 xenograft = U937 xenograft model in vivo antitumor assay
# [2] = test system: class IIa HDACs (MDA-MB-231 cell lysate); conditions: class IIa-specific substrate, NA: not active at 10 μM
structure (smiles),measurement,setting,value
CCCC(CCC)C(=O)N[C@H](COc1ccc(/C=C/C(=O)NO)cc1OC)Cc1c[nH]c2ccccc12 [Compound 17a],effect on acetylated tubulin level,"[1]; 1 μM, 3 h and 24 h, MDA-MB-231, compared with SAHA",almost no effect
same,effect on histone H4 acetylation with time,"[1]; 1 μM, 3 h vs 24 h, MDA-MB-231",maintained even increased
same,effects on the levels of histone acetylation and p21 expression,"[1]; 1 μM, MDA-MB-231, especially after 24 h of treatment",comparable even superior to SAHA
same,cell permeability (by monitoring intracellular acetylation levels),[1]; MDA-MB-231 cell line,cell permeable
same,toxic signs in liver and spleen,"U937 xenograft; U937 xenograft mice, once daily by oral gavage for three weeks",no evident toxic signs in liver and spleen
same,body weight loss,"U937 xenograft; mouse, in vivo, po",no significant body weight loss
same,IC50 class IIa cell lysate,[2],no obvious inhibition
